Test results: patent US20230263812A1, “Compositions and Methods for Treating COVID-19 and/or Acute Respiratory Failure and/or Acute Respiratory Distress Syndrome Using Tetrahydrocannabinol and Compositions Including Same” (priority 2020, published 2023)
Counter-ions that a name gives are not always drawn. Like-named read-outs stand apart in the source and are kept apart here.

What was measured:
[1] = cited from earlier work; for share of the urinary excretion products of fluvoxamine: 5 mg radiolabelled dose of fluvoxamine maleate, fluvoxamine acid value is together with its N-acetylated analog; for bound to plasma protein: mostly albumin, concentration range 20 to 2000 ng/mL
serotonin uptake = conditions: in vitro, rats; cited from earlier work
norepinephrine reuptake = conditions: in vitro, rats; cited from earlier work
[2] = cited from earlier work
serotonin reuptake = conditions: in vitro as well as in vivo; cited from earlier work
σ-1 non-opioid receptor = σ-1 non-opioid receptor (Homo sapiens, UniProt Q99720); conditions: cited from earlier work
COVID-19 = test: Clinical study of oral dronabinol plus standard of care in COVID-19 patients hospitalized for hypoxia; format: in vivo, human; conditions: for LOS: LOS = length of stay (days)
[3] = cited from earlier work; remark: listed apart in the source

σ-1 non-opioid receptor, sequence (Q99720 whole entry): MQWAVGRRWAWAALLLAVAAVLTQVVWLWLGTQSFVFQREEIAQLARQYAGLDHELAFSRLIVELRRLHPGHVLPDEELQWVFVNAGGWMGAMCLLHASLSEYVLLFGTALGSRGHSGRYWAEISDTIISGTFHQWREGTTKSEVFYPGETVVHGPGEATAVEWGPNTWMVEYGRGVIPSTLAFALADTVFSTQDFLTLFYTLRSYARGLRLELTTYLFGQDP

COCCCC/C(=N\OCCO)c1ccc(C(F)(F)F)cc1 [fluvoxamine ethanol]
share of the urinary excretion products of fluvoxamine [1]: about 10%
inhibition of serotonin uptake (serotonin uptake): inactive
norepinephrine reuptake inhibition (norepinephrine reuptake): inactive

COCCCC/C(=N\OCCN)c1ccc(C(F)(F)F)cc1 [fluvoxamine, 2-[(E)-[5-methoxy-1-[4-(trifluoromethyl)phenyl]pentylidene]amino]oxyethanamine]
mean apparent volume of distribution ([1]; human, in vivo): approximately 25 L/kg
mean apparent volume of distribution ([1]; human, in vivo, listed as Fluvoxamine): 25 L/kg
bound to plasma protein [1]: Approximately 80%
bound to plasma protein ([1]; listed as Fluvoxamine): 80%
decrease in clearance in association with hepatic dysfunction ([2]; cross study comparison, healthy subjects versus patients with hepatic dysfunction): 30%
clearance reduced in elderly patients ([2]; human, in vivo): about 50%
serotonin reuptake inhibition (serotonin reuptake): potent
agonistic sigma1 binding affinity, rank among agents tested (σ-1 non-opioid receptor): strongest

COCCCC/C(=N\OCCN)c1ccc(C(F)(F)F)cc1 [fluvoxamine maleate]
effect of food on oral bioavailability ([1]; human, in vivo, po): not significantly affected by food

NCCO/N=C(\CCCC(=O)O)c1ccc(C(F)(F)F)cc1 [fluvoxamine acid]
share of the urinary excretion products of fluvoxamine [1]: about 60%
potency on serotonin uptake relative to the parent compound (serotonin uptake): 1-2 orders of magnitude less potent

CCCCCc1cc(O)c2c(c1)OC(C)(C)[C@@H]1CCC(C)=C[C@@H]21 [dronabinol, (−)-(6aR,10aR)-6,6,9-trimethyl-3-pentyl-6a,7,8,10a-tetrahydro-6H-benzo[c]-chromen-1-ol]
survival rate (COVID-19; 2.5 mg dronabinol regimen): 88.9%
LOS (COVID-19; 2.5 mg dronabinol regimen): 17.4
# Survived (COVID-19; 2.5 mg dronabinol regimen, total 9 in group): 8
survival rate (COVID-19; 2.5 mg group (2.5 mg twice orally daily)): 89%
survival rate (COVID-19; 5 mg dronabinol regimen): 94.1%
LOS (COVID-19; 5 mg dronabinol regimen): 8.8
# Survived (COVID-19; 5 mg dronabinol regimen, total 68 in group): 64
survival rate (COVID-19; 5 mg treated group (5 mg orally twice daily)): 93.5%
survival rate (COVID-19; all dronabinol-treated patients (77), standard of care alone 80%): 93.5%
Mortality rate (COVID-19; hospitalized COVID-19 patients requiring oxygen supplementation, 2.5 mg or 5 mg dronabinol orally BID plus standard of care, 77 patients, untreated group 20.5%): 6.5%
average first peak C-reactive protein (CRP) levels, difference (COVID-19; lower in the treatment group than untreated, p-value 0.07, not statistically significant): 14%
reduction in mortality (COVID-19; treated group (77) versus untreated/control group (44), p-value 0.02): 68%
Length of stay in the hospital (COVID-19; treated group, untreated group 15.6 days): 9.9 days
reduction in length of stay (COVID-19; treated versus untreated group, p-value 0.01): 37%
time for which low levels of metabolites are detected in the urine and feces ([3]; following single dose administration): more than 5 weeks
radio-labeled oral dose recovered from the feces within 72 hours ([3]; in vivo, po): about half
radio-labeled oral dose recovered from urine ([3]; in vivo, po): 10-15%
absorbed after single oral doses ([3]; oral): 90-95%
plasma protein binding ([3]; Δ9-THC and its metabolites): approximately 97%
